Assay results from patent publication US20230085307A1, “PYRIDAZINONE COMPOUND AND HERBICIDE” (NISSAN CHEMICAL CORPORATION, priority 2019, published 2023).

Experiments:
Italian ryegrass [1] = assay: Test Example 4: herbicidal effect by soil treatment (Table 19, symbol K); type: in vivo, Italian ryegrass (Lolium multiflorum)
How it was run: (§1)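 Soil-surface application: an emulsion agent diluted with water to the predetermined dose is sprayed uniformly over seeds lying under roughly 1.5 cm of sterilized diluvial soil. Boxes stay in a greenhouse at 25° C. to 30° C. Three weeks later, each species is graded on previously defined criteria.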

blackgrass [2] = assay: Test Example 4: herbicidal effect by soil treatment (Table 19, symbol J); type: in vivo, blackgrass (Alopecurus myosuroides)
How it was run: as §1

windgrass [3] = assay: Test Example 5: herbicidal effect by foliage application, plastic box (Table 20, symbol L); type: in vivo, windgrass (Apera spica-venti); settings: foliage application, three weeks after application
How it was run: (§2)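 Sow seeds spot-wise in sterilized diluvial soil; cover with ~1.5 cm soil. Grow 14 days in greenhouse, 25° C. to 30° C. Spray foliage with emulsion diluted to predetermined amount. Rate effect after 3 weeks.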

oval-leafed pondweed = assay: Test Example 1: herbicidal activity, application before weed generation under submerged conditions (Table 16, symbol C); type: in vivo, oval-leafed pondweed (Monochoria vaginalis)
How it was run: (§3)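 Submerged Wagner pots (alluvial soil, 4 cm water) sown with weed seeds and planted with 2.5-leaf rice seedlings; emulsifiable concentrate diluted in water applied to water surface on sowing day. Held in greenhouse at 25-30 °C; injury scored 0-5 by herbicidal rate after three weeks.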

Italian ryegrass [4] = assay: Test Example 5: herbicidal effect by foliage application, plastic box (Table 20, symbol K); type: in vivo, Italian ryegrass (Lolium multiflorum); settings: foliage application, three weeks after application
How it was run: as §2

rice flat sedge = assay: Test Example 3: herbicidal effect by foliage application, Wagner pot (Table 18, symbol E); type: in vivo, rice flat sedge (Cyperus iria)
How it was run: (§4)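 Plants were sown in alluvial soil held under 0.1–0.5 cm standing water and grown 14 days in a greenhouse at 25–30 °C. An emulsifiable formulation, water-diluted to the set dose, was then sprayed onto the foliage, and effects were scored three weeks later using previously defined criteria.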

Chinese sprangletop = assay: Test Example 3: herbicidal effect by foliage application, Wagner pot (Table 18, symbol D); type: in vivo, chinese sprangletop (Leptochloa chinensis)
How it was run: as §4

lambsquarters [5] = assay: Test Example 5: herbicidal effect by foliage application, plastic box (Table 20, symbol O); type: in vivo, lambsquarters (Chenopodium album); settings: foliage application, three weeks after application
How it was run: as §2

barnyard grass [6] = assay: Test Example 5: herbicidal effect by foliage application, plastic box (Table 20, symbol H); type: in vivo, barnyard grass (Echinochloa crus-galli); settings: foliage application, three weeks after application
How it was run: as §2

wild oat [7] = assay: Test Example 5: herbicidal effect by foliage application, plastic box (Table 20, symbol I); type: in vivo, wild oat (Avena fatua); settings: foliage application, three weeks after application
How it was run: as §2

persian speedwell [8] = assay: Test Example 5: herbicidal effect by foliage application, plastic box (Table 20, symbol R); type: in vivo, Persian speedwell (Veronica persica); settings: foliage application, three weeks after application
How it was run: as §2

lambsquarters [9] = assay: Test Example 4: herbicidal effect by soil treatment (Table 19, symbol O); type: in vivo, lambsquarters (Chenopodium album)
How it was run: as §1

barnyard grass [10] = assay: Test Example 3: herbicidal effect by foliage application, Wagner pot (Table 18, symbol H); type: in vivo, barnyard grass (Echinochloa crus-galli)
How it was run: as §4

southern crabgrass [11] = assay: Test Example 5: herbicidal effect by foliage application, plastic box (Table 20, symbol F); type: in vivo, southern crabgrass (Digitaria ciliaris); settings: foliage application, three weeks after application
How it was run: as §2

windgrass [12] = assay: Test Example 4: herbicidal effect by soil treatment (Table 19, symbol L); type: in vivo, windgrass (Apera spica-venti)
How it was run: as §1

chickweed = assay: Test Example 4: herbicidal effect by soil treatment (Table 19, symbol P); type: in vivo, common chickweed (Stellaria media)
How it was run: as §1

redroot pigweed = assay: Test Example 4: herbicidal effect by soil treatment (Table 19, symbol N); type: in vivo, redroot pigweed (Amaranthus retroflexus)
How it was run: as §1

southern crabgrass [13] = assay: Test Example 4: herbicidal effect by soil treatment (Table 19, symbol F); type: in vivo, southern crabgrass (Digitaria ciliaris)
How it was run: as §1

persian speedwell [14] = assay: Test Example 4: herbicidal effect by soil treatment (Table 19, symbol R); type: in vivo, Persian speedwell (Veronica persica)
How it was run: as §1

green foxtail [15] = assay: Test Example 5: herbicidal effect by foliage application, plastic box (Table 20, symbol G); type: in vivo, green foxtail (Setaria viridis); settings: foliage application, three weeks after application
How it was run: as §2

late watergrass = assay: Test Example 1: herbicidal activity, application before weed generation under submerged conditions (Table 16, symbol A); type: in vivo, late watergrass (Echinochloa oryzicola)
How it was run: as §3

blackgrass [16] = assay: Test Example 5: herbicidal effect by foliage application, plastic box (Table 20, symbol J); type: in vivo, blackgrass (Alopecurus myosuroides); settings: foliage application, three weeks after application
How it was run: as §2

Japanese bulrush = assay: Test Example 1: herbicidal activity, application before weed generation under submerged conditions (Table 16, symbol B); type: in vivo, Japanese bulrush (Schoenoplectus juncoides)
How it was run: as §3

velvetleaf [17] = assay: Test Example 5: herbicidal effect by foliage application, plastic box (Table 20, symbol M); type: in vivo, velvetleaf (Abutilon theophrasti); settings: foliage application, three weeks after application
How it was run: as §2

green foxtail [18] = assay: Test Example 4: herbicidal effect by soil treatment (Table 19, symbol G); type: in vivo, green foxtail (Setaria viridis)
How it was run: as §1

wild oat [19] = assay: Test Example 4: herbicidal effect by soil treatment (Table 19, symbol I); type: in vivo, wild oat (Avena fatua)
How it was run: as §1

barnyard grass [20] = assay: Test Example 4: herbicidal effect by soil treatment (Table 19, symbol H); type: in vivo, barnyard grass (Echinochloa crus-galli)
How it was run: as §1

velvetleaf [21] = assay: Test Example 4: herbicidal effect by soil treatment (Table 19, symbol M); type: in vivo, velvetleaf (Abutilon theophrasti)
How it was run: as §1

[22] = amount of applied herbicide 344 g/ha
[23] = amount of applied herbicide 320 g/ha

CCCC(=O)Oc1c(C)nn(C)c(=O)c1-c1c(-c2ccc(F)cc2OC)sc2cc(OC)c(Cl)cc12 [5-076]
K: Italian ryegrass, herbicidal effect grade (Italian ryegrass [1]; [22]): 0 (Herbicidal rate of 5% or less (almost no effect))
J: blackgrass, herbicidal effect grade (blackgrass [2]; [22]): 0 (Herbicidal rate of 5% or less (almost no effect))
herbicidal effect on windgrass (L) (windgrass [3]; 344 g/ha): 3 (Herbicidal rate of 40% or more and less than 70%)
Herbicidal effect, C: oval-leafed pondweed (oval-leafed pondweed; [22]): 1 (Herbicidal rate of 5% or more and less than 20%)
herbicidal effect on Italian ryegrass (K) (Italian ryegrass [4]; 344 g/ha): 0 (Herbicidal rate of 5% or less (almost no effect))
herbicidal effect on rice flat sedge (E) (rice flat sedge; 344 g/ha): 0 (Herbicidal rate of 5% or less (almost no effect))
herbicidal effect on Chinese sprangletop (D) (Chinese sprangletop; 344 g/ha): 0 (Herbicidal rate of 5% or less (almost no effect))
herbicidal effect on lambsquarters (O) (lambsquarters [5]; 344 g/ha): 4 (Herbicidal rate of 70% or more and less than 90%)
herbicidal effect on barnyard grass (H) (barnyard grass [6]; 344 g/ha): 3 (Herbicidal rate of 40% or more and less than 70%)
herbicidal effect on wild oat (I) (wild oat [7]; 344 g/ha): 0 (Herbicidal rate of 5% or less (almost no effect))
herbicidal effect on persian speedwell (R) (persian speedwell [8]; 344 g/ha): 0 (Herbicidal rate of 5% or less (almost no effect))
O: lambsquarters, herbicidal effect grade (lambsquarters [9]; [22]): 3 (Herbicidal rate of 40% or more and less than 70%)
herbicidal effect on barnyard grass (H) (barnyard grass [10]; 344 g/ha): 5 (Herbicidal rate of 90% or more (almost completely withered))
herbicidal effect on southern crabgrass (F) (southern crabgrass [11]; 344 g/ha): 1 (Herbicidal rate of 5% or more and less than 20%)
L: windgrass, herbicidal effect grade (windgrass [12]; [22]): 0 (Herbicidal rate of 5% or less (almost no effect))
P: chickweed, herbicidal effect grade (chickweed; [22]): 0 (Herbicidal rate of 5% or less (almost no effect))
N: redroot pigweed, herbicidal effect grade (redroot pigweed; [22]): 4 (Herbicidal rate of 70% or more and less than 90%)
F: southern crabgrass, herbicidal effect grade (southern crabgrass [13]; [22]): 3 (Herbicidal rate of 40% or more and less than 70%)
R: persian speedwell, herbicidal effect grade (persian speedwell [14]; [22]): 0 (Herbicidal rate of 5% or less (almost no effect))
herbicidal effect on green foxtail (G) (green foxtail [15]; 344 g/ha): 4 (Herbicidal rate of 70% or more and less than 90%)
Herbicidal effect, A: late watergrass (late watergrass; [22]): 2 (Herbicidal rate of 20% or more and less than 40%)
herbicidal effect on blackgrass (J) (blackgrass [16]; 344 g/ha): 1 (Herbicidal rate of 5% or more and less than 20%)
Herbicidal effect, B: Japanese bulrush (Japanese bulrush; [22]): 0 (Herbicidal rate of 5% or less (almost no effect))
herbicidal effect on velvetleaf (M) (velvetleaf [17]; 344 g/ha): 3 (Herbicidal rate of 40% or more and less than 70%)
G: green foxtail, herbicidal effect grade (green foxtail [18]; [22]): 3 (Herbicidal rate of 40% or more and less than 70%)
I: wild oat, herbicidal effect grade (wild oat [19]; [22]): 0 (Herbicidal rate of 5% or less (almost no effect))
H: barnyard grass, herbicidal effect grade (barnyard grass [20]; [22]): 1 (Herbicidal rate of 5% or more and less than 20%)
M: velvetleaf, herbicidal effect grade (velvetleaf [21]; [22]): 1 (Herbicidal rate of 5% or more and less than 20%)

Cc1nn(C)c(=O)c(-c2c(-c3ccc(Cl)cc3)oc3ccc(F)cc23)c1O [9-016]
K: Italian ryegrass, herbicidal effect grade (Italian ryegrass [1]; [23]): 4 (Herbicidal rate of 70% or more and less than 90%)
J: blackgrass, herbicidal effect grade (blackgrass [2]; [23]): 0 (Herbicidal rate of 5% or less (almost no effect))
herbicidal effect on windgrass (L) (windgrass [3]; 320 g/ha): 4 (Herbicidal rate of 70% or more and less than 90%)
Herbicidal effect, C: oval-leafed pondweed (oval-leafed pondweed; [23]): 0 (Herbicidal rate of 5% or less (almost no effect))
herbicidal effect on Italian ryegrass (K) (Italian ryegrass [4]; 320 g/ha): 5 (Herbicidal rate of 90% or more (almost completely withered))
Herbicidal effect on E (rice flat sedge), foliage application (rice flat sedge; [23]): 4 (Herbicidal rate of 70% or more and less than 90%)
Herbicidal effect on D (Chinese sprangletop), foliage application (Chinese sprangletop; [23]): 5 (Herbicidal rate of 90% or more (almost completely withered))
herbicidal effect on lambsquarters (O) (lambsquarters [5]; 320 g/ha): 5 (Herbicidal rate of 90% or more (almost completely withered))
herbicidal effect on barnyard grass (H) (barnyard grass [6]; 320 g/ha): 5 (Herbicidal rate of 90% or more (almost completely withered))
herbicidal effect on wild oat (I) (wild oat [7]; 320 g/ha): 4 (Herbicidal rate of 70% or more and less than 90%)
herbicidal effect on persian speedwell (R) (persian speedwell [8]; 320 g/ha): 5 (Herbicidal rate of 90% or more (almost completely withered))
O: lambsquarters, herbicidal effect grade (lambsquarters [9]; [23]): 4 (Herbicidal rate of 70% or more and less than 90%)
Herbicidal effect on H (barnyard grass), foliage application (barnyard grass [10]; [23]): 5 (Herbicidal rate of 90% or more (almost completely withered))
herbicidal effect on southern crabgrass (F) (southern crabgrass [11]; 320 g/ha): 4 (Herbicidal rate of 70% or more and less than 90%)
L: windgrass, herbicidal effect grade (windgrass [12]; [23]): 4 (Herbicidal rate of 70% or more and less than 90%)
P: chickweed, herbicidal effect grade (chickweed; [23]): 3 (Herbicidal rate of 40% or more and less than 70%)
N: redroot pigweed, herbicidal effect grade (redroot pigweed; [23]): 5 (Herbicidal rate of 90% or more (almost completely withered))
F: southern crabgrass, herbicidal effect grade (southern crabgrass [13]; [23]): 3 (Herbicidal rate of 40% or more and less than 70%)
R: persian speedwell, herbicidal effect grade (persian speedwell [14]; [23]): 5 (Herbicidal rate of 90% or more (almost completely withered))
herbicidal effect on green foxtail (G) (green foxtail [15]; 320 g/ha): 5 (Herbicidal rate of 90% or more (almost completely withered))
Herbicidal effect, A: late watergrass (late watergrass; [23]): 3 (Herbicidal rate of 40% or more and less than 70%)
herbicidal effect on blackgrass (J) (blackgrass [16]; 320 g/ha): 4 (Herbicidal rate of 70% or more and less than 90%)
Herbicidal effect, B: Japanese bulrush (Japanese bulrush; [23]): 0 (Herbicidal rate of 5% or less (almost no effect))
herbicidal effect on velvetleaf (M) (velvetleaf [17]; 320 g/ha): 5 (Herbicidal rate of 90% or more (almost completely withered))
G: green foxtail, herbicidal effect grade (green foxtail [18]; [23]): 4 (Herbicidal rate of 70% or more and less than 90%)
I: wild oat, herbicidal effect grade (wild oat [19]; [23]): 2 (Herbicidal rate of 20% or more and less than 40%)
H: barnyard grass, herbicidal effect grade (barnyard grass [20]; [23]): 4 (Herbicidal rate of 70% or more and less than 90%)
M: velvetleaf, herbicidal effect grade (velvetleaf [21]; [23]): 1 (Herbicidal rate of 5% or more and less than 20%)
